In patent US10543183B2, “Treatment and diagnosis of melanoma” (The Rockefeller University, priority 2012, dated 2020):
Where a name gives a salt, the structure may show the parent alone.

Key:
[1] = test system: B16F10 mouse melanoma cells; test: subcutaneous B16F10 tumor growth in mice; assay type: in vivo; settings: chow 100 mg/kg
Method: First, the cells were treated with 500 μg/mL DTIC for one week. Following this initial DTIC treatment, the remaining (˜10%) viable cells were allowed to recover for one week, after which 750 μg/mL of DTIC was added to the cell media for 5 days. Subsequent to this high-dose treatment, the cells were allowed to recover in the presence of low-dose DTIC (100 μg/mL) for one week. The cells were then continuously cultured in cell media containing 200 μg/mL DTIC for at least one month prior to grafting the cells into mice. DTIC was added to fresh cancer cell media every 3 days. […] DTIC was dissolved in the presence of citric acid (1:1 by weight) in water and administered daily by intraperitoneal injection.

[2] = test system: MDA-468 human breast cancer cells; test: MDA-468 breast cancer tumor growth in mammary fat pads; assay type: in vivo, mouse; settings: diet 75 mg/kg/day
Method: The mice were assigned to a control diet treatment or a GW3965-supplemented diet treatment (75 mg/kg/day) two days prior to injection of the cancer cells.

[3] = test system: B-RafV600E/+; Pten−/−; CDKN2A−/− primary mouse melanoma cells; test: B-RafV600E/+; Pten−/−; CDKN2A−/− melanoma cells in syngeneic mice; assay type: in vivo
Method: Melanoma cells used for in vivo metastasis assays were transduced with a stably expressed retroviral construct encoding a luciferase reporter gene (Ponomarev et al., 2004), allowing us to monitor the in vivo progression of melanoma cells by bioluminescence imaging. The following numbers of melanoma cells, resuspended in 100 μL of PBS, were injected intravenously via the tail-vein: 4×10^4 MeWo cells, 2.5×10^5 HT-144 cells, 2×10^5 SK-Mel-334.2 cells, 5×10^4B 16F10 cells, and 1×10^5YUMM cells. The MeWo, HT-144, and SK-Mel-334.2 cells were injected into 6-8 week-old sex-matched NOD scid mice, while the B16F10 and YUMM cells were injected into 6-8 week-old sex-matched C57BL/6 mice. […] To assess the effect of GW3965 treatment on brain metastasis, 1×10^5 MeWo brain-metastatic derivatives were injected intracardially into athymic nude mice. Immediately following injection, mice were randomly assigned to a control diet or GW3965-supplemented diet (100 mg/kg). To determine whether oral delivery of GW3965 can inhibit the progression of incipient metastasis, NOD Scid mice were intravenously injected with 4×10^4MeWo cells and the cells were allowed to colonize the lungs for 42 days, after which mice were blindedly assigned to a control diet or a GW3965-supplemented diet (100 mg/kg) treatment.

[4] = test system: Tyr::CreER; B-RafV600E/+; Ptenlox/+ and Ptenlox/lox mice; test: genetically-initiated model of melanoma progression; assay type: in vivo, mouse
Method: The Tyr::CreER; B-Raf^V600E/+; Pten^lox/+/Tyr::CreER; B-Raf^V600E/+; Pten^lox/lox conditional model of melanoma progression was previously established and characterized by Dankort et al. (2009). Briefly, melanoma in these mice was induced at 6 weeks of age by intraperitoneally injecting 4-HT (H6278, 70% isomer, Sigma-Aldrich, St Louis, Mo.) at 25 mg/kg administered in peanut oil on three consecutive days. The 4-HT stock solution was prepared by dissolving it in 100% EtOH at 50 mg/mL by heating at 45° C. for 5 min and mixing. Once dissolved, the stock 4-HT solution was then diluted by 10-fold in peanut oil, yielding a 5 mg/mL 4-HT working solution that was then injected into mice. After the first 4-HT injection, mice were blindedly assigned to receive either a control diet or a diet supplemented with GW3965 (100 mg/kg). Mice were examined three times a week for the presence and progression of melanoma lesions. At day 35, dorsal skin samples were harvested from control-treated and GW3965-treated mice, fixed in 4% PFA and photographed at 10×. The percentage of pigmented melanoma lesion area out of the total skin area was quantified using ImageJ. For survival analyses, mice were monitored daily for melanoma progression and euthanized according to a standard body condition score, taking into account initial signs of moribund state and discomfort associated with the progression of melanoma burden. Post-mortem, the lungs, brains, and salivary glands were harvested and examined for the presence of macroscopic melanoma lesions.

MeWo melanoma cells = test: orthotopic metastasis assay after tumor excision; assay type: in vivo, mouse; settings: oral, chow 100 mg/kg for 1 month
Method: To determine the effect of GW3965 treatment on lung colonization by melanoma cells dissociated from an orthotopic site, 1×10^6 MeWo cells expressing a luciferase reporter were subcutaneously injected into both lower flanks of NOD Scid mice. Upon the formation of tumors measuring ˜300 mm^3 in volume, the tumors were excised and the mice were randomly assigned to a control diet or a GW3965-supplemented diet (100 mg/kg) treatment. One month after tumor excision, the lungs were extracted and lung colonization was measured by ex vivo bioluminescence imaging. To histologically confirm the extent of melanoma lung colonization, lungs were then fixed in 4% PFA overnight, paraffin-embedded, section into […] increments and stained for human vimentin (VP-V684, Vector Laboratories).

[5] = test system: breast cancer, renal cell cancer and pancreatic cancer cell lines; test: endothelial recruitment by other cancer types; assay type: cell-based, human

Row | Compound | suppression of tumor growth by DTIC-resistant B16F10 clone [1] | breast cancer tumor size in vivo [2] | tumor growth ([3]; chow 100 mg/kg) | lung metastasis ([3]; diet 100 mg/kg) | overall survival ([3]; diet 100 mg/kg) | number of lymphatic metastases detected post-mortem ([4]; Ptenlox/lox mice, chow 100 mg/kg) | tumor progression ([4]; oral, diet 100 mg/kg after melanoma initiation) | overall survival times ([4]; oral, diet 100 mg/kg, Ptenlox/+ and Ptenlox/lox mice) | inhibition of lung colonization by disseminated melanoma cells post-tumor excision (MeWo melanoma cells) [fold] | endothelial recruitment across breast, renal cell and pancreatic cancer [5]
1 | O=C(O)Cc1cccc(OCCCN(Cc2cccc(C(F)(F)F)c2Cl)CC(c2ccccc2)c2ccccc2)c1 [GW3965 2, 3-[3-[N-(2-Chloro-3-trifluoromethylbenzyl)-(2,2-diphenylethyl)amino]propyloxy] phenylacetic acid hydrochloride] | more than 70% | significant reduction | robustly inhibited | robustly inhibited | extended | decrease | attenuated | significantly extended | 17 | 
2 | recombinant ApoE3: recombinant human ApoE3 (4696, BioVision) |  |  |  |  |  |  |  |  |  | inhibited
